Results taken from patent US8637512B2, “Formulations and method of treatment” (Glaxo Group Limited, priority 2002, dated 2014).

Columns and labels:
[1] = stomach versus lower regions of the gastrointestinal tract; cited from earlier work
[2] = Regional absorption study in the gastrointestinal tract; type: in vivo
From the text: Until recently, it was not known where, in the gastrointestinal tract, lamotrigine is absorbed. In carrying out a regional absorption study it has recently been discovered that the extent of absorption of lamotrigine is consistent when the drug is delivered to any point in the gastrointestinal tract between the stomach and the ascending colon. The extent of absorption is also equivalent whether the drug is delivered as a solid or as a solution.

[3] = cited from earlier work

- extent of absorption, solid versus solution ([2]; drug delivered as a solid or as a solution): equivalent
- extent of absorption by site of delivery ([2]; drug delivered to any point in the gastrointestinal tract between the stomach and the ascending colon): consistent
Structure (SMILES): Nc1nnc(-c2cccc(Cl)c2Cl)c(N)n1 [Lamotrigine, 3,5-diamino-6-(2,3-dichlorophenyl)-1,2,4-triazine]
- solubility in the stomach compared to lower regions of the gastrointestinal tract [1]: higher
- absorption after oral administration [3]: rapidly and completely absorbed
- absolute bioavailability ([3]; oral administration): about 98%
- effect of food on absolute bioavailability ([3]; oral administration): not affected by food
- first pass metabolism ([3]; oral administration): negligible
